Source: PubChem BioAssay AID1996
In brackets after ≈: the same amount, converted by molar mass.

settings: buffer; pH 7.4; 200.0 µM

solubility kinetic | SMILES
> 55.2 µg/mL | O=C(NCC(c1ccco1)N1CCCCC1)c1cnc(Cl)c(Cl)c1 (stereo not given)
0.8 µg/mL (≈ 2.47 µM) | O=C(OCc1cc2ccccc2[nH]c1=O)c1cccc([N+](=O)[O-])c1
> 50.5 µg/mL | Cc1ccc(C(=O)Nc2ccccc2C(=O)N2CCCCCC2)cc1
3 µg/mL (≈ 7.36 µM) | CC(=O)c1ccc(S(=O)(=O)N2CCC(C(=O)Nc3ncc(C)s3)CC2)cc1
> 37.9 µg/mL | CN1CCCN(C(=O)c2cccc(Cl)c2)CC1
> 43 µg/mL | Nc1nnc(SCC(=O)NC2CCCCCC2)s1
> 44.5 µg/mL | O=C(NCCS(=O)(=O)NC1CCCC1)c1ccccc1
> 59.5 µg/mL | Cc1ccc(S(=O)(=O)N(C)C)cc1NC(=O)C(C)OC(=O)C1CCCCC1 (stereo not given)
> 26.3 µg/mL | O=C1CCCN1Cc1ccccc1
1.6 µg/mL (≈ 5.16 µM) | CN(C)C(=O)c1cc(C(=O)c2ccc(C(F)(F)F)cc2)c[nH]1
> 48.4 µg/mL | Cc1onc(-c2c(F)cccc2Cl)c1C(=O)N1CCCCC1
> 44.6 µg/mL | CC1N(C(=O)N(C)C)CCN1S(=O)(=O)c1ccccc1 (stereo not given)
39.2 µg/mL (≈ 128 µM) | O=C(c1cccs1)N1CCN(c2ccc(Cl)cc2)CC1
> 51.7 µg/mL | CC1CCCCN1C(=O)COC(=O)c1ccc(N2CCCC2=O)cc1 (stereo not given)
42.4 µg/mL (≈ 147 µM) | CCCCNC(=O)C1CCC(=O)N1CCc1ccccc1 (stereo not given)
3.6 µg/mL (≈ 10.3 µM) | Cc1cccc(NC(=O)COC(=O)c2ccc3nc(C)c(C)nc3c2)c1
> 75.5 µg/mL | CCN1CCN(c2ccc(S(=O)(=O)N3CCOCC3)cc2NC(=O)c2cccc([N+](=O)[O-])c2)CC1
> 47.1 µg/mL | COC(=O)C1CCCN1S(=O)(=O)c1ccc([N+](=O)[O-])cc1 (stereo not given)
46.9 µg/mL (≈ 142 µM) | O=C(Nc1cccc(S(=O)(=O)N2CCCC2)c1)c1ccncc1

The next lines start with the molecule.

SMILES | solubility kinetic
Cl.c1ccc2c(c1)OCC(C1=NCCN1)O2 (stereo not given) | > 36.1 µg/mL
Cc1nc2ccccc2c(=O)n1CCc1ccc(O)cc1 | > 42 µg/mL
CCn1cc(CCC(=O)NCCN2CCOCC2)c2ccccc21 | 48.9 µg/mL (≈ 148 µM)
COc1ccccc1CNC(=O)Cn1c(=O)oc2cc(Cl)ccc21 | 1.7 µg/mL (≈ 4.9 µM)
CCOC(=O)/C(C#N)=C/C1=C(N2CCOCC2)C(C)(C)OCC1 | > 48.1 µg/mL
Cc1ccc(OCC(=O)Nc2ccccc2F)cc1 | 4.6 µg/mL (≈ 17.7 µM)
CCC(C)c1ccccc1NC(=O)CN(CC)CC(=O)Nc1ccc2c(c1)OCCO2 (stereo not given) | 38.3 µg/mL (≈ 90 µM)
Cc1c(C(=O)NC(C)C2CC3CCC2C3)cccc1[N+](=O)[O-] (stereo not given) | 34.3 µg/mL (≈ 113 µM)
O=C(O)Cn1c(=O)c2cccn2c2ccccc21 | > 36.3 µg/mL
Cc1ccc(C(=O)O)cc1NC(=S)NCCc1ccccc1 | > 47.2 µg/mL
Nc1ccc2oc(=O)c(-c3ccccc3)cc2c1 | 19.3 µg/mL (≈ 81.3 µM)
N#CCCN1CCN(C(=O)c2c(N)no[n+]2[O-])CC1 | > 39.9 µg/mL
O=C(Nc1ccc(NC(=O)c2ccco2)cc1)c1ccco1 | 2.5 µg/mL (≈ 8.44 µM)
COc1cc(OC)c(C(=O)NC23CC4CC(CC(C4)C2)C3)cc1OC | 7.1 µg/mL (≈ 20.6 µM)
COc1ccc(NC(=O)c2ccc3ncsc3c2)cc1 | 1.3 µg/mL (≈ 4.57 µM)
Cc1ccc(OCC(=O)NCCCNC(=O)c2ccncc2)cc1 | > 49.1 µg/mL
O=C(Nc1cccc(-c2cn3ccccc3n2)c1)c1ccccc1 | 21 µg/mL (≈ 67 µM)
O=C(Nc1ccc(F)c(F)c1)C1=COCCO1 | 35.6 µg/mL (≈ 148 µM)
COc1ccc2oc(=O)c(C(=O)NCc3ccc(C)cc3)cc2c1 | < 0.7 µg/mL
COc1ccc(CCNC(=O)COC(=O)CCC(=O)c2cccs2)cc1OC | > 60.8 µg/mL
O=C(Nc1ccc(Br)c(Br)c1)C1CCCO1 (stereo not given) | 38.8 µg/mL (≈ 111 µM)

SMILES | solubility kinetic
CCCCN(C1CCS(=O)(=O)C1)S(=O)(=O)c1ccc(C(C)C)cc1 (stereo not given) | 1.9 µg/mL (≈ 5.09 µM)
Cn1cccc/c1=N\c1cccc[n+]1C.[I-] | > 49.1 µg/mL
Cc1ccc(S(=O)(=O)N2C(=O)c3cccc4cccc2c34)cc1 | 3.7 µg/mL (≈ 11.4 µM)
COc1ccc(NC(=S)Nc2ccc(F)cc2)cc1 | 27.7 µg/mL (≈ 100 µM)
O=Cc1c(NCc2ccco2)nc2ccccn2c1=O | 19.5 µg/mL (≈ 72.4 µM)
CCOC(=O)Cn1c(=O)oc2cc(S(=O)(=O)NC(C)(C)CC)ccc21 | 53.8 µg/mL (≈ 145 µM)
COc1ccc(C2(CNS(=O)(=O)c3ccccc3)CCOCC2)cc1 | 46.6 µg/mL (≈ 129 µM)
CC(=O)c1ccc(NC(=O)[C@@]2(CC(=O)O)CC(/C=C/c3ccccc3)=NO2)cc1 | > 58.9 µg/mL
Cc1[nH]c2ccc3ccccc3c2c(=O)c1C/C=C/Cl | 1.1 µg/mL (≈ 3.88 µM)
O=S(=O)(Nc1ccc(Cl)cc1)c1cccc2cccnc12 | 5 µg/mL (≈ 15.7 µM)
COC(=O)c1ccc(SCc2ccccc2)nc1 | 3.1 µg/mL (≈ 12 µM)
COc1ccc(S(=O)(=O)N2CCN(C(=O)c3cc(C)nc4ccccc34)CC2)cc1OC | > 68.3 µg/mL
COc1ccc(C(=O)NCCSc2ccccc2C)cc1 | 23.7 µg/mL (≈ 78.6 µM)
CCC(=O)NCc1csc(-c2cccs2)n1 | > 37.9 µg/mL
c1ccc(N2CCN(Cc3ccc4c(c3)OCO4)CC2)nc1 | 32.1 µg/mL (≈ 108 µM)
COc1ccc(CCC(=O)NCc2ccccc2OC)cc1 | > 44.9 µg/mL
Cc1ccccc1NC(=O)c1ccccc1-c1ccccc1 | 36.5 µg/mL (≈ 127 µM)
CN(c1ccccc1)S(=O)(=O)c1ccc2c(c1)oc(=O)n2C | 27.1 µg/mL (≈ 85.1 µM)
COc1ccc2c(c1)[nH]c1c(=O)n(CCN3CCOCC3)cnc12 | 47.6 µg/mL (≈ 145 µM)
Nc1nonc1C(=O)NCCNc1ncccc1[N+](=O)[O-] | 30.2 µg/mL (≈ 103 µM)
